The values below come from a melting point compilation (Tetko et al.).

Regarding `Cc1ccc(N)c(C(=O)N(C)C)c1`, the melting point – broadly, the temperature of the solid-liquid transition – fell in the range of 98 to 100 °C.

`O=C(O)c1cnnn1-c1ccccc1Cl` had a melting point of 174 to 176 °C.

`CS(=O)Cc1cccc(C(=O)O)c1` (stereo not drawn) returned a melting point of 181 to 183 °C.

Take `O=C(O)CCc1nnc(-c2ccccc2I)o1`: the melting point was 84 to 86 °C.

`O=C1CCCc2c(Br)cccc2N1` gave a melting point of 169 to 171 °C.

`CCOC(=O)c1cc(C)sc1NC(=O)CCl`: the melting point lay in the range of 104 to 106 °C.

Turning to `CS(=O)(=O)c1ccc(NC(=O)OCC(F)(F)F)cc1`, the melting point was 175 to 177 °C.

In the case of `O=C(O)CNC(=O)N1CCc2ccccc2C1`, the melting point lay within 159 to 161 °C.

Take `COC(=O)c1c(N)sc(C)c1-c1ccc(Cl)cc1Cl`: the melting point fell in the range of 94 to 96 °C.

As to `NC(=O)NN=Cc1ccccc1O`, the melting point lay within 232 to 234 °C.

`O=CC1=Cc2cc(Br)ccc2OC1` returned a melting point of 103 to 105 °C.

`Cc1[nH]c(=O)[nH]c(=O)c1C#N` returned a melting point of 351 to 353 °C.

Consider `NC1(C(=O)O)CCN(Cc2ccccc2)C1` (stereo not drawn), for which the melting point was 216 to 218 °C.

`COC(=O)C1CC(OC)=CC1=O` (stereo not drawn) displayed a melting point of 47 to 49 °C.

With `c1nc(N2CCNCC2)c2sccc2n1`, the melting point lay within 98 to 100 °C.

With `CN(C)C(=O)c1ccc(C=O)[nH]1`, the melting point lay in the range of 165 to 167 °C.

The compound `Nc1nc(-c2ccccc2Cl)co1` gave a melting point of 137 to 139 °C.

Compound `O=C(O)Cc1cc(=O)n(-c2ccccc2)[nH]1` returned a melting point of 98 to 102 °C.

In turn, `Nc1ccn(Cc2ncccn2)n1` yielded a melting point of 100 to 102 °C.

For the compound `CSCCC(NC(=O)c1ccco1)C(=O)O` (stereo not drawn), the melting point lay in the range of 185 to 187 °C.

As to `O=C(CCl)N1CCN(c2ccc([N+](=O)[O-])cc2)CC1`, the melting point lay within 129 to 131 °C.

The compound `Cn1cc(Cl)cc1C(=O)O` registered a melting point of 129 to 131 °C.

Compound `Cc1cc(C)c(C#N)c(N2CCCC2)n1` yielded a melting point of 54 to 56 °C.

In the case of `CNS(=O)(=O)CBr`, the melting point fell in the range of 64 to 66 °C.

The compound `O=Cc1ccc(-n2cncn2)c(F)c1` came in with a melting point of 127 to 129 °C.

The compound `O=c1[nH]c(CNCC2CCCO2)nc2ccccc12` (stereo not drawn) gave a melting point of 128 to 132 °C.

With `O=C(O)CN1CCCCC1=O`, the melting point fell in the range of 169 to 171 °C.

Consider `Nc1cccc(-c2n[nH]c3c2CCCC3)c1`, for which the melting point fell in the range of 159 to 161 °C.

`ClCc1ccnc(-c2ccc(Br)cc2)n1` showed a melting point of 126 to 128 °C.

In the case of `COc1ccc(C(C)=O)cc1CC(=O)O`, the melting point was 122 to 124 °C.

The compound `Nc1ccc(S(=O)(=O)NC2CCC(O)CC2)cc1` (stereo not drawn) registered a melting point of 154 to 156 °C.

For the compound `O=S(=O)(NCCBr)c1ccccc1`, the melting point lay in the range of 54 to 56 °C.

On to `COc1ccc(CCNC(N)=S)cc1`, for which the melting point lay in the range of 166 to 168 °C.

With `NC(=O)c1ccsc1NC(=O)CCl`, the melting point lay in the range of 148 to 150 °C.

`COC(=O)c1nc(Cl)c2ccccc2c1OC` came in with a melting point of 103 to 105 °C.

Consider `COC(C)(C)C(N)=NO`, for which the melting point lay in the range of 104 to 106 °C.

`O=C(O)Cn1nc2n(c1=O)CCCCC2` yielded a melting point of 229 to 231 °C.

With `O=C(O)Cc1cc(=O)[nH]c(=O)[nH]1`, the melting point is 324 to 326 °C.

`Nc1cc(C(=O)Nc2ccccc2)ccc1Cl` showed a melting point of 199 to 201 °C.

The compound `CC(C)C(Br)C(=O)NC1CCS(=O)(=O)C1` (stereo not drawn) yielded a melting point of 139 to 141 °C.

In turn, `O=C(c1cccc(S(=O)(=O)Cl)c1)N1CCCC1` returned a melting point of 65 to 67 °C.

`COCCNS(=O)(=O)c1ccc(N)cc1`: the melting point fell in the range of 83 to 85 °C.

Compound `N#CCN1CCCC2CCCCC21` (stereo not drawn) had a melting point of 42 to 44 °C.

The compound `O=C(O)C1COc2ccccc21` (stereo not drawn) displayed a melting point of 101 to 103 °C.

`C#CCNC(=O)Nc1cc(C)on1` registered a melting point of 163 to 165 °C.

In turn, `c1ccc(Nc2nnns2)cc1` yielded a melting point of 144 to 146 °C.

With `CN1CCc2nc(N)c(C#N)cc2C1`, the melting point was in the range of 215 to 217 °C.

With `Nc1cc(S(=O)(=O)N2CCOCC2)ccc1Cl`, the melting point was in the range of 177 to 179 °C.

As to `CC1CCC(NC(=O)CN2CCNCC2)CC1` (stereo not drawn), the melting point fell in the range of 120 to 122 °C.

For `Nc1c(F)cccc1-n1cncn1`, the melting point fell in the range of 103 to 105 °C.

In the case of `OCc1nc(Cc2ccc(F)cc2)no1`, the melting point lay in the range of 53 to 55 °C.

For the compound `Cc1ccc(S(=O)(=O)CCC(=O)O)cc1`, the melting point fell in the range of 108 to 110 °C.

For the compound `NC1(C(=O)O)CCOCC1`, the melting point was 268 to 270 °C.

For `CCOc1ccc(N(C)S(=O)(=O)c2ccc(C)c(C(=O)O)c2)cc1`, the melting point fell in the range of 175 to 177 °C.

For the compound `O=c1ccn2ncnc2[nH]1`, the melting point was in the range of 282 to 284 °C.

In the case of `O=C(O)C1(c2ccc(F)cc2)CCCCC1`, the melting point lay in the range of 137 to 139 °C.

`O=C(CO)N1CCCc2ccccc21`: the melting point was 80 to 82 °C.

Turning to `Cc1cc2ncn(CC3CO3)c2cc1C` (stereo not drawn), the melting point lay within 119 to 121 °C.

`O=C1CCc2cc(OCCCl)ccc2N1` yielded a melting point of 150 to 152 °C.

Consider `FC(F)(F)Oc1ccc(-n2nnnc2S)cc1`, for which the melting point lay in the range of 123 to 125 °C.

Turning to `OCCCNC(c1ccccc1)c1ccccc1`, the melting point lay in the range of 62 to 64 °C.

`O=C(O)c1ccnc(SCC(F)(F)F)c1` yielded a melting point of 104 to 106 °C.

As to `O=C(c1ccc(Br)cc1)N1CCc2ccccc21`, the melting point was 123 to 125 °C.

`COc1cccc(C=O)c1OC(F)F` came in with a melting point of 30 to 32 °C.

In turn, `CC(=O)Nc1ccc(-c2csc(N)n2)c(F)c1` came in with a melting point of 204 to 206 °C.

For `COc1ccc(NC(=O)NCCC(=O)O)cc1`, the melting point lay within 174 to 176 °C.

The compound `NC(=NO)c1ccc(N2CCN(c3ccc(F)cc3)CC2)nc1` yielded a melting point of 191 to 193 °C.

Take `Nc1ccc(-c2csc(N)n2)cc1`: the melting point lay within 178 to 180 °C.

As to `CCCn1ccnc1S`, the melting point lay within 119 to 121 °C.

On to `O=C1C=CC(=O)N1CCc1ccc([N+](=O)[O-])cc1`, for which the melting point is 61 to 63 °C.

Regarding `Cc1nc(Cl)c2c(-c3ccccc3)csc2n1`, the melting point is 169 to 173 °C.

As to `OCCNc1ccccn1`, the melting point was in the range of 64 to 66 °C.

`O=C(O)CCc1ccc2ccccc2c1`: the melting point fell in the range of 135 to 137 °C.

Regarding `COc1ccc(C)cc1C1(C)NC(=O)N(CC(=O)O)C1=O` (stereo not drawn), the melting point was in the range of 188 to 190 °C.

As for `Clc1ccc(-n2cccn2)cn1`, the melting point lay within 107 to 109 °C.

In turn, `Nc1ccc(CN2CCOCC2)cn1` returned a melting point of 119 to 121 °C.

Turning to `CC(=O)N(C)CC(=O)O`, the melting point was 137 to 139 °C.

Consider `CC(C)CN1C(=O)CN=C1S`, for which the melting point was < 17 °C.

On to `NNS(=O)(=O)Cc1ccc([N+](=O)[O-])cc1`, for which the melting point fell in the range of 139 to 141 °C.

For `O=[N+]([O-])c1cc(Cc2ccccc2)ccc1O`, the melting point lay in the range of 70 to 72 °C.

With `NNC(=O)c1cc2sccc2cn1`, the melting point fell in the range of 204 to 206 °C.

Regarding `CS(=O)(=O)CBr`, the melting point was 34 to 36 °C.

`Cc1cc(Cl)c(CO)c(Cl)n1` returned a melting point of 81 to 83 °C.

Turning to `Cc1ccc(S(=O)(=O)NCc2ccco2)cc1C(=O)O`, the melting point was 178 to 180 °C.

The compound `O=C(O)c1ccc(CNC(=O)C23CC4CC(CC(C4)C2)C3)cc1` yielded a melting point of 195 to 197 °C.

Turning to `N#Cc1cccnc1Oc1ccc(N)cc1`, the melting point is 152 to 154 °C.

With `O=C(Nc1ccccc1)c1cccc(-n2ccnc2S)c1`, the melting point is 228 to 230 °C.

In turn, `NC(=O)NCc1cccs1` displayed a melting point of 128 to 132 °C.

Regarding `Nc1cc(-c2ccc(Cl)cc2)no1`, the melting point was in the range of 164 to 166 °C.

For the compound `COc1ccc([N+](=O)[O-])cc1NC(=O)C(C)Cl` (stereo not drawn), the melting point lay in the range of 131 to 133 °C.

Compound `CC1CCc2c(sc3nc(CC#N)[nH]c(=O)c23)C1` (stereo not drawn) returned a melting point of 266 to 268 °C.

In the case of `CC(C)(C)n1cnc(N)n1`, the melting point was 135 to 137 °C.

In the case of `Nc1ccc2[nH]c(-c3ccco3)nc2c1`, the melting point lay within 230 to 232 °C.

`COc1ccc(N)cc1S(=O)(=O)N1CCCCC1` had a melting point of 93 to 95 °C.

Turning to `CCN(CC)S(=O)(=O)c1cccc(C(=O)NN)c1`, the melting point lay in the range of 133 to 135 °C.

As to `O=[N+]([O-])c1cc(F)c(F)cc1[N+](=O)[O-]`, the melting point was in the range of 80 to 82 °C.

With `O=C(O)Cn1nnc(-c2ccco2)n1`, the melting point lay within 216 to 218 °C.

The compound `O=C(O)c1ccc(-c2nnn[nH]2)cc1` returned a melting point of 282 to 284 °C.

Compound `CC(=O)OCC(N)=S` returned a melting point of 75 to 77 °C.

For `CSc1ccc(Cl)c(C(N)=O)c1`, the melting point was 144 to 146 °C.

The compound `O=c1[nH][nH]c2ncc(Br)cc12` showed a melting point of 219 to 221 °C.

In turn, `O=C(O)Cc1csc2nc(-c3ccccc3)cn12` had a melting point of 220 to 222 °C.

Regarding `CC(=O)N1CCN(Cc2cccc(N)n2)CC1`, the melting point lay within 169 to 171 °C.

`O=C(c1ccncc1)c1cc(F)ccc1F` displayed a melting point of 53 to 55 °C.

On to `N#Cc1cccc(Oc2ccc(N)cc2)c1`, for which the melting point fell in the range of 39 to 41 °C.

For `CCN(CC)c1ccc(C(=O)O)cn1`, the melting point was 154 to 156 °C.

Compound `Nc1cc(NC(=O)Cn2cccnc2=O)ccc1F` yielded a melting point of 251 to 253 °C.

`OCc1cn(-c2ccc(Cl)c(Cl)c2)nn1` yielded a melting point of 142 to 144 °C.

Compound `O=S1(=O)CCC(Nc2ccccc2)C1` (stereo not drawn) came in with a melting point of 119 to 123 °C.

Regarding `CC(=NO)c1ccc(OCc2ccc(F)cc2)cc1`, the melting point is 151 to 153 °C.

In turn, `CC(N)c1ccc(-n2cccn2)cc1` (stereo not drawn) gave a melting point of 48 to 50 °C.

With `CCC1CCC2(CC1)NC(=O)N(CC(=O)O)C2=O` (stereo not drawn), the melting point lay in the range of 214 to 216 °C.

Consider `CC(=O)Nc1c(Cl)cc(Br)c2ccccc12`, for which the melting point lay in the range of 227 to 229 °C.

`Cn1cnnc1CO` had a melting point of 49 to 51 °C.

`Cc1ccc(-c2noc(Cl)n2)cc1` showed a melting point of 40 to 42 °C.

`c1cc(-n2ccnc2)ccn1` gave a melting point of 104 to 106 °C.

In the case of `CCCS(=O)(=O)c1ccc(C(=O)O)cc1`, the melting point lay in the range of 193 to 195 °C.

Turning to `OCCOc1cc(Cl)ccc1Cl`, the melting point lay within 59 to 61 °C.

Turning to `CC(C)(C(=O)O)c1ccc(F)cc1`, the melting point lay within 89 to 91 °C.

The compound `NCc1ccc(C(=O)Nc2ccc(F)cc2)cc1` returned a melting point of 145 to 147 °C.

The compound `CC(C)(C)c1cccc(OCC(=O)O)c1` yielded a melting point of 117 to 119 °C.

For the compound `CCOC(=O)Cc1csc(NC(=O)Cc2ccccc2)n1`, the melting point lay in the range of 92 to 94 °C.

As for `Cc1sc2nc(CCl)[nH]c(=O)c2c1C`, the melting point is 190 to 192 °C.
